Calls of active or inactive are those of the source. The calls are words filed in the database; no cut-off is given here.
Key:
[1] = system: PC-3; assay: cells; settings: Homo sapiens, PC-3, 72 h
[2] = target: PI3-kinase p110-alpha/p85-alpha (Homo sapiens, UniProt P42336); assay: Inhibition of full length recombinant human N-terminal His-tagged PI3K p110alpha/p85alpha expressed in baculovirus using PIP2 as substrate after 1 hr by kinase-glo luminescence assay
[3] = system: SK-OV-3; assay: cells; settings: Homo sapiens, SK-OV-3, 72 h
[4] = target: Serine/threonine-protein kinase mTOR (Homo sapiens, UniProt P42345); assay: Inhibition of recombinant human N-terminal FLAG-tagged mTOR (1362 to end residues) expressed in baculovirus infected Sf21 insect cells assessed as reduction in ULight-4E-BP1 phosphorylation after 30 mins by lance ultra assay
[5] = system: U-87 MG; assay: cells; settings: Homo sapiens, 72 h
[6] = system: LNCaP; assay: cells; settings: Homo sapiens, 72 h
[7] = system: U-87 MG; assay: Antitumor activity against human U87MG cells xenografted in BALB/c nude mouse assessed as tumor growth inhibition at 20 mg/kg/day, po for 18 days measured every 3 days during compound dosing relative to control; format: functional; settings: U-87MG ATCC
[8] = system: SK-OV-3; assay: Antitumor activity against human SKOV3 cells xenografted in BALB/c nude mouse assessed as tumor growth inhibition at 30 mg/kg/day, po for 24 days measured every 3 days during compound dosing relative to control; format: functional
[9] = target: Phosphatidylinositol 4,5-bisphosphate 3-kinase catalytic subunit beta isoform (Homo sapiens, UniProt P42338); assay: Inhibition of PI3Kbeta (unknown origin) using PIP2 as substrate after 1 hr by ADP-Glo luminescence assay
Chain of Phosphatidylinositol 4,5-bisphosphate 3-kinase catalytic subunit beta isoform (P42338 whole entry, canonical isoform): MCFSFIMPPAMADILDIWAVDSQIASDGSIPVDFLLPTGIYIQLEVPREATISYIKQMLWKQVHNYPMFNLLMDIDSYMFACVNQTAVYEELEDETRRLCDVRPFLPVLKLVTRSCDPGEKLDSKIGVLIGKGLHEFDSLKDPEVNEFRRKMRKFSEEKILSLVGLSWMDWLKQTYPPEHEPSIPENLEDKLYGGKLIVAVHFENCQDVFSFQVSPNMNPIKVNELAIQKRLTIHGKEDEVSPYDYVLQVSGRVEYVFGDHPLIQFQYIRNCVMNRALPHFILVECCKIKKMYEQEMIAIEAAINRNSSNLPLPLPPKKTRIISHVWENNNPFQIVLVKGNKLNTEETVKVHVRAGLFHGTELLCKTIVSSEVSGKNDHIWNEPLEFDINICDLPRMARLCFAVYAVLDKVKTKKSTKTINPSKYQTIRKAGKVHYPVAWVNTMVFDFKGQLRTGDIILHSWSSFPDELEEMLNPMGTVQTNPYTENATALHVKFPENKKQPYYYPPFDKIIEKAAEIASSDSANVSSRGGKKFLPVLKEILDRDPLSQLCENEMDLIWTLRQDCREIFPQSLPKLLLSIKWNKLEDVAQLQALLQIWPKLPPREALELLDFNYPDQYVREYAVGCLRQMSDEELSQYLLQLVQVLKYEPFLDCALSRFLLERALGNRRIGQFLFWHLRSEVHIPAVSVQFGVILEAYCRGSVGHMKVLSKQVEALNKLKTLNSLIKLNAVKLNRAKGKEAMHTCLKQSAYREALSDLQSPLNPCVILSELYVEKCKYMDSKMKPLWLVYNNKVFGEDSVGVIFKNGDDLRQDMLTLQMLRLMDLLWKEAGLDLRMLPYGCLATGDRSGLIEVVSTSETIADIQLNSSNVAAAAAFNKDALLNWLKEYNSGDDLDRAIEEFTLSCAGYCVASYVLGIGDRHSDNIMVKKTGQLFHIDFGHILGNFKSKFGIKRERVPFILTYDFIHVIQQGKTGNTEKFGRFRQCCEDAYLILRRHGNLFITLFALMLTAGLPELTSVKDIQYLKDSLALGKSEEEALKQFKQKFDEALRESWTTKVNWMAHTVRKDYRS

[10] = target: PI3-kinase p110-delta/p85-alpha (Homo sapiens, UniProt O00329); assay: Inhibition of recombinant full length human N-terminal His6-tagged PI3K p110delta/p85alpha expressed in baculovirus infected Sf21 cells using PIP2 as substrate after 2 hrs by kinase-glo luminescence assay
Chain of PI3-kinase p110-delta/p85-alpha (P27986 whole entry, canonical isoform): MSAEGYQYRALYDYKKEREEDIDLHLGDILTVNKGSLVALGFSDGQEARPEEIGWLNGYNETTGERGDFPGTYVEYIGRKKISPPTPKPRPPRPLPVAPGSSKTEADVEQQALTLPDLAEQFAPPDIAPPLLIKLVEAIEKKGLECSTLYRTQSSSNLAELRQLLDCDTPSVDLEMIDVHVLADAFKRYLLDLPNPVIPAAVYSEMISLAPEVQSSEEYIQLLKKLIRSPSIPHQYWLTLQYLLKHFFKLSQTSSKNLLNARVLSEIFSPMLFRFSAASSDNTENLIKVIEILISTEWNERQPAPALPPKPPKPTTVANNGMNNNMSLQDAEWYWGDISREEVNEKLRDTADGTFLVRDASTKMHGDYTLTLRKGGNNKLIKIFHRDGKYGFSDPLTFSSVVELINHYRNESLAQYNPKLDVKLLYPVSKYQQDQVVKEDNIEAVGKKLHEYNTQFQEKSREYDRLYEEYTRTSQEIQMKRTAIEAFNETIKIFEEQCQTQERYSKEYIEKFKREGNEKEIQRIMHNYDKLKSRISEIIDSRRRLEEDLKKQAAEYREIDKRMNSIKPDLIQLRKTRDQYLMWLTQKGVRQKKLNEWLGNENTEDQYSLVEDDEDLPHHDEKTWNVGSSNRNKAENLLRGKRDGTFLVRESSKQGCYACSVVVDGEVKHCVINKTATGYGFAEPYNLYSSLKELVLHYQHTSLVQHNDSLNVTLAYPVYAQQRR
Chain of PI3-kinase p110-delta/p85-alpha (O00329 whole entry, canonical isoform): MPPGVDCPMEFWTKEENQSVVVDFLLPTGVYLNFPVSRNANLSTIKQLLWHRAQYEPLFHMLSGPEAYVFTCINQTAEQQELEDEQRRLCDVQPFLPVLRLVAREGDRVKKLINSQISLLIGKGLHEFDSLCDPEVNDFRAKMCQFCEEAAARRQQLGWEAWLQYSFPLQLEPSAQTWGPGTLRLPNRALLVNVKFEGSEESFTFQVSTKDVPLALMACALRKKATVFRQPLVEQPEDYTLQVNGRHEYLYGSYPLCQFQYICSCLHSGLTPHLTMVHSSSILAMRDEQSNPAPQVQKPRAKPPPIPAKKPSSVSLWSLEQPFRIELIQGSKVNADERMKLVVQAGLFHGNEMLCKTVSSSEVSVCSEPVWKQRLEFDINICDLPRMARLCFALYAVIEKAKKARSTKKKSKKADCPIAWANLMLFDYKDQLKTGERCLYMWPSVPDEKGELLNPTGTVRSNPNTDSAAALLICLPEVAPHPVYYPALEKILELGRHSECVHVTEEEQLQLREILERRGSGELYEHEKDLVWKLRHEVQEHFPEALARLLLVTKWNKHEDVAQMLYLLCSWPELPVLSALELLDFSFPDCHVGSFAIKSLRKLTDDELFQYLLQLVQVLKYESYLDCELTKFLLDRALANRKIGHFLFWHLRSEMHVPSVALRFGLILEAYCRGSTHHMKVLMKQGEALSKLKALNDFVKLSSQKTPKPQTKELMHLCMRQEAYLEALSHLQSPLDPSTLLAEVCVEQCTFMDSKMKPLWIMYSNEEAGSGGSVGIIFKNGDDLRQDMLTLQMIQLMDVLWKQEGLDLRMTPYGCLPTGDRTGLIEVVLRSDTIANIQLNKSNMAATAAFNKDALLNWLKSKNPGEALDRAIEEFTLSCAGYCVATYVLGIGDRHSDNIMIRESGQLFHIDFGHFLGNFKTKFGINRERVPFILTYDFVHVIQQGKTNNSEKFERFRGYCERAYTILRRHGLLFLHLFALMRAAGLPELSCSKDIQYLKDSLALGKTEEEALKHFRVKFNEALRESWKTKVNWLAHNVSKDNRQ

[11] = target: Phosphatidylinositol 4,5-bisphosphate 3-kinase catalytic subunit gamma isoform (Homo sapiens, UniProt P48736); assay: Inhibition of recombinant human His-tagged PI3K p110gamma expressed in baculovirus using PIP2 as substrate after 1 hr by kinase-glo luminescence assay
Chain of Phosphatidylinositol 4,5-bisphosphate 3-kinase catalytic subunit gamma isoform (P48736 whole entry, canonical isoform): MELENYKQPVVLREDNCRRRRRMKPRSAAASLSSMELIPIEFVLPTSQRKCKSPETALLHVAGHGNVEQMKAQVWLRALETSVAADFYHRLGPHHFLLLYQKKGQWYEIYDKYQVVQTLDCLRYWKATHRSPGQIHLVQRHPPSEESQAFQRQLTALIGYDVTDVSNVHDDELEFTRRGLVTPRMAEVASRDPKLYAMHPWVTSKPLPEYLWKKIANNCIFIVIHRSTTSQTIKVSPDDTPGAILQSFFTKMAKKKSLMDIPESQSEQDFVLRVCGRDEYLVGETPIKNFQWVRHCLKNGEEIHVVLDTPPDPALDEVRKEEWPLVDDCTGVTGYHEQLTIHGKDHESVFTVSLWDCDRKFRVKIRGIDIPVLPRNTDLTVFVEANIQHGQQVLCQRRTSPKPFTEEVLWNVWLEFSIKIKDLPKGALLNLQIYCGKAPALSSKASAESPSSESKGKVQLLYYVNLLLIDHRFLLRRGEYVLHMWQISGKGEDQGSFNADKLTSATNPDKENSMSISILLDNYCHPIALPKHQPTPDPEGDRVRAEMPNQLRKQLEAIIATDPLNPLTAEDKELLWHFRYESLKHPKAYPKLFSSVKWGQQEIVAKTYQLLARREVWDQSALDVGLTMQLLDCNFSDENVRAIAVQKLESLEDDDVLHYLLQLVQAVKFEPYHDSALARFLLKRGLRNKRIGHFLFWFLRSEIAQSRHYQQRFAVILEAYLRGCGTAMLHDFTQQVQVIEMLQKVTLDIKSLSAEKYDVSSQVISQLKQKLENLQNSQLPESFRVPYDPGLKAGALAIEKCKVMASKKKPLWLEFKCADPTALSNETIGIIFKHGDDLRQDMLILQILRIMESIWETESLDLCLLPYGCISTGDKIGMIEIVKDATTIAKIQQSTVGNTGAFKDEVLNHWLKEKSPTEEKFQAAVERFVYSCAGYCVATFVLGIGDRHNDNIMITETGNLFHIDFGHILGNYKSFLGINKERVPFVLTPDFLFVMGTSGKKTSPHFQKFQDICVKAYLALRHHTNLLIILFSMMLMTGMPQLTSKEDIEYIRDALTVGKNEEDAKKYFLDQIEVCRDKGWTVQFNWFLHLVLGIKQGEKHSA

Chain of PI3-kinase p110-alpha/p85-alpha (P27986 whole entry): as the sequence (P27986 whole entry, canonical isoform) above
Chain of PI3-kinase p110-alpha/p85-alpha (P42336 whole entry): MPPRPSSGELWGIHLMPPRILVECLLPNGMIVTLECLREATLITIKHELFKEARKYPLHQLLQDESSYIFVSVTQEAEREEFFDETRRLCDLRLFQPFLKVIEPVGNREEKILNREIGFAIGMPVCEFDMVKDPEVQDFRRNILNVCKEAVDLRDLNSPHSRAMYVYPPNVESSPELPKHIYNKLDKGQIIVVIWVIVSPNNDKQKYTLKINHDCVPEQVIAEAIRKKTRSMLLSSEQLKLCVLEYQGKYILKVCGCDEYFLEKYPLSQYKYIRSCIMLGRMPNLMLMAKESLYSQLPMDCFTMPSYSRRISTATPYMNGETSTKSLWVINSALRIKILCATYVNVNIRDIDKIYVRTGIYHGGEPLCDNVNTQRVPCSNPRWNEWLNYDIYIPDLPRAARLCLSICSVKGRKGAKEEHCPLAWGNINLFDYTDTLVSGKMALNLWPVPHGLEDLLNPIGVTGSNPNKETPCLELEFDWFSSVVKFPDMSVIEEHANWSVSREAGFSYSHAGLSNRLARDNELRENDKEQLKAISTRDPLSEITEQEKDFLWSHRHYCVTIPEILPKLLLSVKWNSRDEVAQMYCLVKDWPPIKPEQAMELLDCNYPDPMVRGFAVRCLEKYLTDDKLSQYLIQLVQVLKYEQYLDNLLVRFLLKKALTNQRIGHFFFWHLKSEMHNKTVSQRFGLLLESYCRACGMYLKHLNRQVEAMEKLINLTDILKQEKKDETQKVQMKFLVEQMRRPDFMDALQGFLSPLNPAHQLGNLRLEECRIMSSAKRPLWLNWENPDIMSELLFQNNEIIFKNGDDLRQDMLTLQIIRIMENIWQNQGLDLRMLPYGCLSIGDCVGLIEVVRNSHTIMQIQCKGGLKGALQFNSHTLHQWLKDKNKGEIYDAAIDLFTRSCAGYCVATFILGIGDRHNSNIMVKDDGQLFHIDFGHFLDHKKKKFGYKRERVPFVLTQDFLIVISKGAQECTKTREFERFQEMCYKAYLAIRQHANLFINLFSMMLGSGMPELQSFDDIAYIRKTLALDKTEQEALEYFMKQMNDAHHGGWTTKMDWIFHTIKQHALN

SMILES | IC50 [1] [nM] | IC50 [2] [nM] | IC50 [3] [nM] | IC50 [4] [nM] | IC50 [5] [nM] | IC50 [6] [nM] | TGI [7] | TGI [8] | IC50 [9] [nM] | IC50 [10] [nM] | IC50 [11] [nM]
CCC(O)c1cc2nc(N3C[C@@H](C)O[C@@H](C)C3)nc(N3CCOCC3)c2s1 (stereo not given in full) | 2970 | 239 | 9120 | > 2000 | > 25000 | 1600 |  |  |  |  | 
C[C@@H]1CN(c2nc(N3CCOCC3)c3sc(-c4cccc5[nH]ncc45)cc3n2)C[C@H](C)O1 |  | > 10000 |  | > 2000 |  |  |  |  |  |  | 
C[C@@H]1CN(c2nc(N3CCOCC3)c3sc(-c4ccco4)cc3n2)C[C@H](C)O1 | > 25000 | 2200 | 5910 | 109 | 12800 | 2640 |  |  |  |  | 
C[C@@H]1CN(c2nc(N3CCOCC3)c3sc(C(O)Cc4ccccc4)cc3n2)C[C@H](C)O1 (stereo not given in full) |  | 2050 |  | > 2000 |  |  |  |  |  |  | 
C[C@@H]1CN(c2nc(N3CCOCC3)c3sc(-c4ccsc4)cc3n2)C[C@H](C)O1 |  | > 10000 |  | > 2000 |  |  |  |  |  |  | 
C[C@@H]1CN(c2nc(N3CCOCC3)c3sc(-c4ccccc4)cc3n2)C[C@H](C)O1 |  | > 10000 |  | > 2000 |  |  |  |  |  |  | 
Cc1c(-c2ccn[nH]2)sc2c(N3CCOCC3)nc(N3C[C@@H](C)O[C@@H](C)C3)nc12 | 1740 | 197 | 830 | 73 | 8760 | 1100 |  |  |  |  | 
C[C@@H]1CN(c2nc(N3CCOCC3)c3sc(-c4ccnn4C)cc3n2)C[C@H](C)O1 |  | 1240 |  | > 2000 |  |  |  |  |  |  | 
CC(O)c1cc2nc(N3C[C@@H](C)O[C@@H](C)C3)nc(N3CCOCC3)c2s1 (stereo not given in full) | 1380 | 122 | 1220 | 632 | 3290 | 2590 |  |  |  |  | 
C[C@@H]1CN(c2nc(N3CCOCC3)c3sc(-c4cccnc4)cc3n2)C[C@H](C)O1 | 12800 | 281 | 15700 | 612 | > 25000 | 3000 |  |  |  |  | 
C[C@@H]1CN(c2nc(N3CCOCC3)c3sc(-c4ccncc4)cc3n2)C[C@H](C)O1 |  | > 10000 |  | > 2000 |  |  |  |  |  |  | 
C[C@@H]1CN(c2nc(N3CCOCC3)c3sc(-c4cnn(C)c4)cc3n2)C[C@H](C)O1 |  | 4950 |  | > 2000 |  |  |  |  |  |  | 
C[C@@H]1CN(c2nc(N3CCOCC3)c3sc(CO)cc3n2)C[C@H](C)O1 | 1050 | 216 | 4990 | 463 | 6590 | 1780 |  |  |  |  | 
CS(=O)(=O)N1CCN(Cc2cc3nc(-c4cccc5[nH]ncc45)nc(N4CCOCC4)c3s2)CC1 |  |  |  |  |  |  | inactive | inactive |  |  | 
C[C@@H]1CN(c2nc(N3CCOCC3)c3sc(-c4ccccn4)cc3n2)C[C@H](C)O1 | 2750 | 694 | 990 | 270 | 4450 | 4430 |  |  |  |  | 
c1cc2nc(N3CCOCC3)nc(N3CCOCC3)c2s1 |  | 1870 |  | > 2000 |  |  |  |  |  |  | 
C[C@@H]1CN(c2nc(N3CCOCC3)c3sc(-c4cnc(N)nc4)cc3n2)C[C@H](C)O1 | 3670 | 24 | 10000 | 424 | > 25000 | 4530 |  |  | 317 | 171 | 35
CN1CCN(c2nc(N3CCOCC3)c3sc(CO)cc3n2)CC1 |  | 1030 |  | > 2000 |  |  |  |  |  |  | 

SMILES | IC50 [1] [nM] | IC50 [2] [nM] | IC50 [3] [nM] | IC50 [4] [nM] | IC50 [5] [nM] | IC50 [6] [nM] | TGI [7] | TGI [8] | IC50 [9] [nM] | IC50 [10] [nM] | IC50 [11] [nM]
C[C@@H]1COCCN1c1nc(N2CCOCC2)c2sc(CO)cc2n1 | 1320 | 299 | 2170 | 335 | > 25000 | 2630 |  |  |  |  | 
C[C@@H]1CN(c2nc(N3CCOCC3)c3sc(-c4ccc[nH]4)cc3n2)C[C@H](C)O1 | 3050 | 4180 | 18900 | 172 | > 25000 | 2390 |  |  |  |  | 
c1nc2c(N3CCOCC3)nc(N3CCOCC3)nc2[nH]1 |  | > 10000 |  | > 2000 |  |  |  |  |  |  | 
OCc1cc2nc(N3CCSCC3)nc(N3CCOCC3)c2s1 | 2260 | 249 | 2180 | 603 | > 25000 | 4200 |  |  |  |  | 
C[C@@H]1CN(c2nc(N3CCOCC3)c3sc(-c4cn[nH]c4)cc3n2)C[C@H](C)O1 | > 25000 | 995 | 10100 | 427 | > 25000 | 4050 |  |  |  |  | 
C[C@@H]1CN(c2nc(N3CCOCC3)c3sc(-c4ccc(N)nc4)cc3n2)C[C@H](C)O1 | 7000 | 165 | 2900 | 70 | > 25000 | 1130 |  |  |  |  | 
C[C@@H]1CN(c2nc(N3CCOCC3)c3sc(-c4cncnc4)cc3n2)C[C@H](C)O1 |  | 9470 |  | > 2000 |  |  |  |  |  |  | 
CS(=O)(=O)N1CCN(Cc2cc3nc(N4CCOCC4)nc(N4CCOCC4)c3s2)CC1 |  | 4820 |  | > 2000 |  |  |  |  |  |  | 
OCc1cc2nc(N3CCOCC3)nc(N3CCOCC3)c2s1 | 6000 | 216 | 8240 | > 2000 | 17500 | 2060 |  |  |  |  | 
c1cc2c(N3CCOCC3)nc(N3CCOCC3)nc2[nH]1 |  | 6180 |  | > 2000 |  |  |  |  |  |  | 
C[C@@H]1CN(c2nc(N3CCOCC3)c3sc(C(N)=O)cc3n2)C[C@H](C)O1 | 4320 | 191 | 7110 | 865 | > 25000 | 3270 |  |  |  |  | 
CC(=O)c1cc2nc(N3CCOCC3)nc(N3CCOCC3)c2s1 |  | 675 |  | > 2000 |  |  |  |  |  |  | 
COc1ccc(-c2cc3nc(N4C[C@@H](C)O[C@@H](C)C4)nc(N4CCOCC4)c3s2)cn1 |  | > 10000 |  | > 2000 |  |  |  |  |  |  | 
O=C(O)c1cc2nc(N3CCOCC3)nc(N3CCOCC3)c2s1 | > 25000 | 237 | > 25000 | > 2000 | 2440 | 23600 |  |  |  |  | 
OCc1cc2nc(N3CCOc4ccccc43)nc(N3CCOCC3)c2s1 | 2670 | 681 | 2890 | 336 | 21200 | 1820 |  |  |  |  | 
C[C@@H]1CN(c2nc(N3CCOCC3)c3sc(-c4ccccc4O)cc3n2)C[C@H](C)O1 | 2490 | > 10000 | 1800 | 225 | 9880 | 2380 |  |  |  |  | 
CS(=O)(=O)N1CCN(c2nc(N3CCOCC3)c3sc(CO)cc3n2)CC1 | 15000 | 279 | 23300 | > 2000 | > 25000 | 6160 |  |  |  |  | 
C[C@@H]1CN(c2nc(N3CCOCC3)c3sc(-c4ccoc4)cc3n2)C[C@H](C)O1 | 5920 | 3560 | 21800 | 222 | > 25000 | 6770 |  |  |  |  | 
